According to patent US20110028566A1, “COMPOSITIONS AND PRODUCTS CONTAINING CYCLOALIPHATIC DIOL ANTIMICROBIAL AGENTS AND METHODS OF USING THE COMPOSITIONS AND PRODUCTS” (EASTMAN CHEMICAL COMPANY, priority 2009, published 2011):

Key:
Assay in all cases: Microbial challenge testing in BPW
Type in all cases: cell-based
Proteus vulgaris = conditions: BPW, w/v % in label, average of replicates; for Grade code, P. vulgaris, 3 Days: 3 days incubation; for Grade code, P. vulgaris, 13 Days: 13 days incubation; for Grade code, P. vulgaris, 30 Day: 30 days incubation
Summary of the method: (§1)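 Bacteria, including ATCC and wild-type isolates from chemical products, were grown in tryptose soy broth with 1% dextrose for at least 96 hours. Inoculum was sized by plate count and turbidity (NTU) and added to test-material substrates to give 10^5 to 10^6 cfu/mL initially. Incubation ran 14 days at 35° C., then at room temperature.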

Pseudomonas aeruginosa = conditions: for Grade code, P. aeruginosa, 3 Days / Grade code, P. aeruginosa, 13 Days / Grade code, P. aeruginosa, 30 Days: BPW, w/v % in label, average of replicates
Summary of the method: as §1

Staphylococcus aureus = conditions: for Grade code, S. aureus, 3 Day / Grade code, S. aureus, 14 Day / Grade code, S. aureus, 30 Day: BPW, w/v % in label, average of replicates
Summary of the method: as §1

[1] = tested on: Staphylococcus epidermidis; conditions: for Grade code, S. epidermidis, 3 Days / Grade code, S. epidermidis, 13 Days / Grade code, S. epidermidis, 30 Days: BPW, w/v % in label, average of replicates
Summary of the method: as §1

Streptococcus mutans = conditions: for Grade code, S. mutans, 3 Day / Grade code, S. mutans, 13 Day / Grade code, S. mutans, 30 Days: BPW, w/v % in label, average of replicates
Summary of the method: as §1

[2] = 3 days incubation, listed as 0.5% AB
[3] = 3 days incubation, listed as 1.25% AB
[4] = 3 days incubation, listed as 2.5% AB
[5] = 13 days incubation, listed as 0.5% AB
[6] = 13 days incubation, listed as 1.25% AB
[7] = 13 days incubation, listed as 2.5% AB
[8] = 30 days incubation, listed as 0.5% AB
[9] = 30 days incubation, listed as 1.25% AB
[10] = 30 days incubation, listed as 2.5% AB

OCC1CCC(CO)CC1 (stereo not drawn) [1,4-CHDM, 1,4-cyclohexanedimethanol]
Grade code, P. vulgaris, 3 Days (Proteus vulgaris; listed as 0.5% AB): 4 (1001 to 10,000 colonies (thus 10,000 cfu/mL to 100,000 cfu/mL)) | Grade code, P. vulgaris, 3 Days (Proteus vulgaris; listed as 1.25% AB): 3 (101 to 1000 colonies (thus 1000 to 10,000 cfu/mL)) | Grade code, P. vulgaris, 3 Days (Proteus vulgaris; listed as 2.5% AB): 1 (1 to 51 colonies counted (thus 10 to 510 cfu/mL)) | Grade code, P. vulgaris, 13 Days (Proteus vulgaris; listed as 0.5% AB): 4 (1001 to 10,000 colonies (thus 10,000 cfu/mL to 100,000 cfu/mL)) | Grade code, P. vulgaris, 13 Days (Proteus vulgaris; listed as 1.25% AB): 2 (52 to 100 colonies counted (thus 520 to 1000 cfu/mL)) | Grade code, P. vulgaris, 13 Days (Proteus vulgaris; listed as 2.5% AB): 0 (No growth detected or <1 colony (thus <10 cfu/mL)) | Grade code, P. vulgaris, 30 Day (Proteus vulgaris; listed as 0.5% AB): 4 (1001 to 10,000 colonies (thus 10,000 cfu/mL to 100,000 cfu/mL)) | Grade code, P. vulgaris, 30 Day (Proteus vulgaris; listed as 1.25% AB): 0 (No growth detected or <1 colony (thus <10 cfu/mL)) | Grade code, P. vulgaris, 30 Day (Proteus vulgaris; listed as 2.5% AB): 0 (No growth detected or <1 colony (thus <10 cfu/mL)) | Grade code P. aeruginosa (Pseudomonas aeruginosa; 0.5%, 3 days incubation): 4 (1001 to 10,000 colonies (thus 10,000 cfu/mL to 100,000 cfu/mL)) | Grade code P. aeruginosa (Pseudomonas aeruginosa; 0.5%, 13 days incubation): 4 (1001 to 10,000 colonies (thus 10,000 cfu/mL to 100,000 cfu/mL)) | Grade code P. aeruginosa (Pseudomonas aeruginosa; 0.5%, 30 days incubation): 4 (1001 to 10,000 colonies (thus 10,000 cfu/mL to 100,000 cfu/mL)) | Grade code P. aeruginosa (Pseudomonas aeruginosa; 1.25%, 3 days incubation): 4 (1001 to 10,000 colonies (thus 10,000 cfu/mL to 100,000 cfu/mL)) | Grade code P. aeruginosa (Pseudomonas aeruginosa; 1.25%, 13 days incubation): 3 (101 to 1000 colonies (thus 1000 to 10,000 cfu/mL)) | Grade code P. aeruginosa (Pseudomonas aeruginosa; 1.25%, 30 days incubation): 4 (1001 to 10,000 colonies (thus 10,000 cfu/mL to 100,000 cfu/mL)) | Grade code P. aeruginosa (Pseudomonas aeruginosa; 2.5%, 3 days incubation): 3 (101 to 1000 colonies (thus 1000 to 10,000 cfu/mL)) | Grade code P. aeruginosa (Pseudomonas aeruginosa; 2.5%, 13 days incubation): 2 (52 to 100 colonies counted (thus 520 to 1000 cfu/mL)) | Grade code P. aeruginosa (Pseudomonas aeruginosa; 2.5%, 30 days incubation): 0 (No growth detected or <1 colony (thus <10 cfu/mL)) | Grade code, P. aeruginosa, 3 Days (Pseudomonas aeruginosa; [2]): 4 (1001 to 10,000 colonies (thus 10,000 cfu/mL to 100,000 cfu/mL)) | Grade code, P. aeruginosa, 3 Days (Pseudomonas aeruginosa; [3]): 4 (1001 to 10,000 colonies (thus 10,000 cfu/mL to 100,000 cfu/mL)) | Grade code, P. aeruginosa, 3 Days (Pseudomonas aeruginosa; [4]): 3 (101 to 1000 colonies (thus 1000 to 10,000 cfu/mL)) | Grade code, P. aeruginosa, 13 Days (Pseudomonas aeruginosa; [5]): 4 (1001 to 10,000 colonies (thus 10,000 cfu/mL to 100,000 cfu/mL)) | Grade code, P. aeruginosa, 13 Days (Pseudomonas aeruginosa; [6]): 3 (101 to 1000 colonies (thus 1000 to 10,000 cfu/mL)) | Grade code, P. aeruginosa, 13 Days (Pseudomonas aeruginosa; [7]): 2 (52 to 100 colonies counted (thus 520 to 1000 cfu/mL)) | Grade code, P. aeruginosa, 30 Days (Pseudomonas aeruginosa; [8]): 4 (1001 to 10,000 colonies (thus 10,000 cfu/mL to 100,000 cfu/mL)) | Grade code, P. aeruginosa, 30 Days (Pseudomonas aeruginosa; [9]): 4 (1001 to 10,000 colonies (thus 10,000 cfu/mL to 100,000 cfu/mL)) | Grade code, P. aeruginosa, 30 Days (Pseudomonas aeruginosa; [10]): 0 (No growth detected or <1 colony (thus <10 cfu/mL)) | Grade code S. aureus (Staphylococcus aureus; 0.5%, 3 days incubation): 4 (1001 to 10,000 colonies (thus 10,000 cfu/mL to 100,000 cfu/mL)) | Grade code S. aureus (Staphylococcus aureus; 0.5%, 14 days incubation): 4 (1001 to 10,000 colonies (thus 10,000 cfu/mL to 100,000 cfu/mL)) | Grade code S. aureus (Staphylococcus aureus; 0.5%, 30 days incubation): 4 (1001 to 10,000 colonies (thus 10,000 cfu/mL to 100,000 cfu/mL)) | Grade code S. aureus (Staphylococcus aureus; 1.25%, 3 days incubation): 3 (101 to 1000 colonies (thus 1000 to 10,000 cfu/mL)) | Grade code S. aureus (Staphylococcus aureus; 1.25%, 14 days incubation): 2.7 | Grade code S. aureus (Staphylococcus aureus; 1.25%, 30 days incubation): 4 (1001 to 10,000 colonies (thus 10,000 cfu/mL to 100,000 cfu/mL)) | Grade code S. aureus (Staphylococcus aureus; 2.5%, 3 days incubation): 1.7 | Grade code S. aureus (Staphylococcus aureus; 2.5%, 14 days incubation): 1 (1 to 51 colonies counted (thus 10 to 510 cfu/mL)) | Grade code S. aureus (Staphylococcus aureus; 2.5%, 30 days incubation): 0 (No growth detected or <1 colony (thus <10 cfu/mL)) | Grade code, S. aureus, 3 Day (Staphylococcus aureus; [2]): 4 (1001 to 10,000 colonies (thus 10,000 cfu/mL to 100,000 cfu/mL)) | Grade code, S. aureus, 3 Day (Staphylococcus aureus; [3]): 3 (101 to 1000 colonies (thus 1000 to 10,000 cfu/mL)) | Grade code, S. aureus, 3 Day (Staphylococcus aureus; [4]): 1.7 | Grade code, S. aureus, 14 Day (Staphylococcus aureus; 14 days incubation, listed as 0.5% AB): 4 (1001 to 10,000 colonies (thus 10,000 cfu/mL to 100,000 cfu/mL)) | Grade code, S. aureus, 14 Day (Staphylococcus aureus; 14 days incubation, listed as 1.25% AB): 2.7 | Grade code, S. aureus, 14 Day (Staphylococcus aureus; 14 days incubation, listed as 2.5% AB): 1 (1 to 51 colonies counted (thus 10 to 510 cfu/mL)) | Grade code, S. aureus, 30 Day (Staphylococcus aureus; [8]): 4 (1001 to 10,000 colonies (thus 10,000 cfu/mL to 100,000 cfu/mL)) | Grade code, S. aureus, 30 Day (Staphylococcus aureus; [9]): 4 (1001 to 10,000 colonies (thus 10,000 cfu/mL to 100,000 cfu/mL)) | Grade code, S. aureus, 30 Day (Staphylococcus aureus; [10]): 0 (No growth detected or <1 colony (thus <10 cfu/mL)) | Grade code S. epidermidis ([1]; 0.5%, 3 days incubation): 4 (1001 to 10,000 colonies (thus 10,000 cfu/mL to 100,000 cfu/mL)) | Grade code S. epidermidis ([1]; 0.5%, 13 days incubation): 4 (1001 to 10,000 colonies (thus 10,000 cfu/mL to 100,000 cfu/mL)) | Grade code S. epidermidis ([1]; 0.5%, 30 days incubation): 4 (1001 to 10,000 colonies (thus 10,000 cfu/mL to 100,000 cfu/mL)) | Grade code S. epidermidis ([1]; 1.25%, 3 days incubation): 2 (52 to 100 colonies counted (thus 520 to 1000 cfu/mL)) | Grade code S. epidermidis ([1]; 1.25%, 13 days incubation): 0.7 | Grade code S. epidermidis ([1]; 1.25%, 30 days incubation): 2 (52 to 100 colonies counted (thus 520 to 1000 cfu/mL)) | Grade code S. epidermidis ([1]; 2.5%, 3 days incubation): 0.7 | Grade code S. epidermidis ([1]; 2.5%, 13 days incubation): 0 (No growth detected or <1 colony (thus <10 cfu/mL)) | Grade code S. epidermidis ([1]; 2.5%, 30 days incubation): 0 (No growth detected or <1 colony (thus <10 cfu/mL)) | Grade code, S. epidermidis, 3 Days [1, 2]: 4 (1001 to 10,000 colonies (thus 10,000 cfu/mL to 100,000 cfu/mL)) | Grade code, S. epidermidis, 3 Days [1, 3]: 2 (52 to 100 colonies counted (thus 520 to 1000 cfu/mL)) | Grade code, S. epidermidis, 3 Days [1, 4]: 0.7 | Grade code, S. epidermidis, 13 Days [1, 5]: 4 (1001 to 10,000 colonies (thus 10,000 cfu/mL to 100,000 cfu/mL)) | Grade code, S. epidermidis, 13 Days [1, 6]: 0.7 | Grade code, S. epidermidis, 13 Days [1, 7]: 0 (No growth detected or <1 colony (thus <10 cfu/mL)) | Grade code, S. epidermidis, 30 Days [1, 8]: 4 (1001 to 10,000 colonies (thus 10,000 cfu/mL to 100,000 cfu/mL)) | Grade code, S. epidermidis, 30 Days [1, 9]: 2 (52 to 100 colonies counted (thus 520 to 1000 cfu/mL)) | Grade code, S. epidermidis, 30 Days [1, 10]: 0 (No growth detected or <1 colony (thus <10 cfu/mL)) | Grade code S. mutans (Streptococcus mutans; 0.5%, 3 days incubation): 4 (1001 to 10,000 colonies (thus 10,000 cfu/mL to 100,000 cfu/mL)) | Grade code S. mutans (Streptococcus mutans; 0.5%, 13 days incubation): 4 (1001 to 10,000 colonies (thus 10,000 cfu/mL to 100,000 cfu/mL)) | Grade code S. mutans (Streptococcus mutans; 0.5%, 30 days incubation): 4 (1001 to 10,000 colonies (thus 10,000 cfu/mL to 100,000 cfu/mL)) | Grade code S. mutans (Streptococcus mutans; 1.25%, 3 days incubation): 4 (1001 to 10,000 colonies (thus 10,000 cfu/mL to 100,000 cfu/mL)) | Grade code S. mutans (Streptococcus mutans; 1.25%, 13 days incubation): 2 (52 to 100 colonies counted (thus 520 to 1000 cfu/mL)) | Grade code S. mutans (Streptococcus mutans; 1.25%, 30 days incubation): 2 (52 to 100 colonies counted (thus 520 to 1000 cfu/mL)) | Grade code S. mutans (Streptococcus mutans; 2.5%, 3 days incubation): 2 (52 to 100 colonies counted (thus 520 to 1000 cfu/mL)) | Grade code S. mutans (Streptococcus mutans; 2.5%, 13 days incubation): 0 (No growth detected or <1 colony (thus <10 cfu/mL)) | Grade code S. mutans (Streptococcus mutans; 2.5%, 30 days incubation): 0 (No growth detected or <1 colony (thus <10 cfu/mL)) | Grade code, S. mutans, 3 Day (Streptococcus mutans; [2]): 4 (1001 to 10,000 colonies (thus 10,000 cfu/mL to 100,000 cfu/mL)) | Grade code, S. mutans, 3 Day (Streptococcus mutans; [3]): 4 (1001 to 10,000 colonies (thus 10,000 cfu/mL to 100,000 cfu/mL)) | Grade code, S. mutans, 3 Day (Streptococcus mutans; [4]): 2 (52 to 100 colonies counted (thus 520 to 1000 cfu/mL)) | Grade code, S. mutans, 13 Day (Streptococcus mutans; [5]): 4 (1001 to 10,000 colonies (thus 10,000 cfu/mL to 100,000 cfu/mL)) | Grade code, S. mutans, 13 Day (Streptococcus mutans; [6]): 2 (52 to 100 colonies counted (thus 520 to 1000 cfu/mL)) | Grade code, S. mutans, 13 Day (Streptococcus mutans; [7]): 0 (No growth detected or <1 colony (thus <10 cfu/mL)) | Grade code, S. mutans, 30 Days (Streptococcus mutans; [8]): 4 (1001 to 10,000 colonies (thus 10,000 cfu/mL to 100,000 cfu/mL)) | Grade code, S. mutans, 30 Days (Streptococcus mutans; [9]): 2 (52 to 100 colonies counted (thus 520 to 1000 cfu/mL)) | Grade code, S. mutans, 30 Days (Streptococcus mutans; [10]): 0 (No growth detected or <1 colony (thus <10 cfu/mL))
